Results on three compounds are retold here after patent US20020006954A1, “Desmethyl tocopherols for preventing or slowing degenerative neurological diseases” (Oklahoma Medical Research Foundation, priority 2000, published 2002).

Data set [1] deals with α-ketoglutarate dehydrogenase (αKGDH). Kind of data set: Protection of αKGDH activity in rat brain mitochondria exposed to SIN-1. The data set is classed as biochemical. As for the experimental part:
FIG. 5 is a graph showing rat brain mitochondria were exposed to 0.4 mM SIN-1 for 1 H after addition of tocopherol. (.) α-toc; (▪) γ-toc. The scale bars labeled [α]norm and [γ]norm indicate the normal endogenous quantities of α-toc and γ-toc, respectively, in human brain.
Mitochondria were isolated from adult rat brain then sonicated briefly in the presence of either αT or γT, or an ethanol vehicle. Mitochondria were then exposed to SIN-1, which generates NO and superoxide simultaneously at a known rate (7). Combination of NO and superoxide yields ONOO^− in situ (discussed above). Enzyme activity is destroyed by peroxynitrite and superoxide but not by NO (19).

For data set [2], the system named is Primary cortical rat neurons. Kind of data set: Neurotoxicity assay, cortical neurons exposed to SNP, LDH release. The data set is classed as cell-based. As to conditions: SNP 10 μM, 24 hours. On the procedure: Cerebrocortical neurons were exposed to the indicated concentration of SNP for 24 hours. Viability was assessed by release of lactate dehydrogenase (LDH) by nonviable cells.
γ-Tocopherol was further assessed for protective ability in a neurotoxicity assay where nitrative stress was imposed. […] Media was removed and cells were then washed and medium was replaced with fresh, tocopherol-free medium.

The subject of data set [3] is occlusive thrombus. Conditions: rats, cited from earlier work; for delay of time to occlusive thrombus: 29% FeCl3 patch on abdominal aorta.
The test system of data set [4] is Alzheimer's Disease. Conditions: one clinical study; cited from earlier work.
The conditions of data set [5]: cited from earlier work; for effect of αT supplementation on systemic γT: oral supplementation.
For data set [6] the following is noted: cited from earlier work; for increase of own plasma tocopherol level above baseline: rats, 100 mg/kg/day for 10 days.
In data set [7] the test system is C3H/10T½ fibroblasts. Conditions: methylcholanthrene-treated C3H/10T½ fibroblasts; cited from earlier work.
In data set [8] the test system is endothelial cells. As to conditions: cited from earlier work.
Data set [9] relates to platelet aggregation. As to conditions: rats, 100 mg/kg/day for 10 days; cited from earlier work.
For data set [10], the system named is systemic lipid oxidation. As to conditions: rats fed tocopherol two weeks after iron-dextran; cited from earlier work.
For data set [11] the following is noted: liposomes exposed to ONOO−; cited from earlier work.
The subject of data set [12] is superoxide dismutase. As to conditions: rats; cited from earlier work.
Setting [13] is: rat brain mitochondria, 400 μM SIN-1, 1 h.

Where two headings read alike, the source gives them in different places.

For `Nc1c[n+](N2CCOCC2)no1` [SIN-1, reference compound], the “decrease of αKGDH activity” value in data set [1] (400 μM SIN-1, one hour, rat brain mitochondria) is recorded as “approximately 50%”.
Turning to `Cc1c(C)c2c(c(C)c1O)CC[C@@](C)(CCC[C@H](C)CCC[C@H](C)CCCC(C)C)O2` [αT, alpha tocopherol, reference compound], the “protection of neurons from SNP toxicity (LDH release)” value in data set [2] (10 μM tocopherol) is “ineffective”. Moreover, the “delay of time to occlusive thrombus” value in data set [3] (100 mg/kg/day for 10 days) is 25%. The “effect on progression of Alzheimer's Disease” value in [4] is given as “decreases the progression of Alzheimer's Disease (AD) marginally”. Besides, the “concentration offering as much protection as 50-100 nM of γT” value in data set [1] (400 μM SIN-1) was 1 to 10 µM. Further, the “tocopherol concentration of maximal protection of αKGDH” value in [1] (setting [13]) was “about 1 μM”. Besides, in [5] (in vivo), the “absorption by the gut” value is “absorbed equally well”. Besides, the “effect of αT supplementation on systemic γT” value is on record as “decreases systemic γT concentration” in data set [5] and “depletes the human body of γ-tocopherol” in data set [5] (listed as α-tocopherol). For the same compound, in data set [6], the “increase of own plasma tocopherol level above baseline” value was 2 fold.
With `Cc1c(O)cc2c(c1C)O[C@](C)(CCC[C@H](C)CCC[C@H](C)CCCC(C)C)CC2` [γT, gamma tocopherol], in [2] (200 nM tocopherol), the “protection of neurons from SNP toxicity (LDH release)” value is recorded as “significantly protected”. Also, the “inhibition of neoplastic transformation relative to αT” value in data set [7] is given as 4 fold. Further, in data set [3] (100 mg/kg/day for 10 days), the “delay of time to occlusive thrombus” value is given as 65%; the “inhibition of iron-induced lipid peroxidation and occlusive thrombus” value is given as “significantly more effective than αT supplementation”. For the same compound, the “potency relative to αT at inhibition of thrombogenic correlates, referred to plasma tocopherol concentrations” value in data set [3] is 20-30 times. In data set [8], the “incorporation into endothelial cells” value is “more rapidly than is αT”. The “inhibition of platelet aggregation kinetics relative to αT supplementation” value in [9] was 2 fold. In addition, the “concentration offering as much protection as 1-10 μM of αT” value in [1] (400 μM SIN-1) lay in the range of 50 to 100 nM. Further, the “protection of αKGDH in side-by-side comparison” value in data set [1] (at all concentrations tested) is on record as “more protective than αT”. For the same compound, the “protection of αKGDH relative to the corresponding concentration of αT” value in data set [1] (concentrations near 100 nM, 400 μM SIN-1) was “approximately 5 times”. Further, in [1] (setting [13]), the “maximal protection of αKGDH relative to maximal protection by αT” value was “approximately 2.5 times” and the “tocopherol concentration of maximal protection of αKGDH” value is on record as “about 1 μM”. Besides, in data set [5] (in vivo), the “absorption by the gut” value is recorded as “absorbed equally well” and the packaging into lipoproteins entry was “less effectively than αT”. In data set [6], the “increase of own plasma tocopherol level above baseline” value is listed as 6 fold. Also, the “plasma γT concentration as percent of the γT concentration (so in the source)” value in data set [6] (γT supplemented rats) was no more than 10%. In addition, the “effectiveness at inhibiting systemic lipid oxidation relative to αT” value in [10] is “approximately 35%”. Besides, in data set [11], the “inhibition of lipid hydroperoxide formation relative to αT” value is “twice as effective”. Besides, the “superoxide dismutase activity in aortas compared to the αT treated group” value in data set [12] is on record as “increased significantly”.
